Test results reported in paper PMC11532403 (Signal Transduction and Targeted Therapy, 2024).
pIC50: −log10 of the molar value. “And” between values parts separate entries of the source, which are not always exact repeats. Equal entries are not always repeated.

Legend:
[1] = system: central nervous system (CNS) metastases; test: Phase 1 trial: intracranial efficacy (RANO-BM); format: in vivo, human; details: for Intracranial lesion reduction: case, KIF5B-RET NSCLC, 160 mg BID
Description: Ongoing assessments are underway to gain a more comprehensive understanding of its intracranial efficacy.

[2] = system: HEK293T-KIF5B-RET M918T cells; test: Proliferation assay (CellTiter-Glo); format: cell-based; details: Homo sapiens, read-out: Cellular Viability IC50
Description: (§1) The cell lines HEK293T, Baf3, TT cell and NIH-3T3 were obtained from the Cell Resource Center, Peking Union Medical College (PCRC). HEK293T and NIH-3T3 were maintained in DMEM high glucose medium (#C3113-0500, Vivacell) supplemented with 10 % FBS (#10500064, Gibco) and 1 % Penicillin-Streptomycin (#15140122, Gibco). The murine Pro‐B cell line Baf3 was cultured in RPMI 1640 medium (#C3010, Vivacell) supplemented with 10 % FBS, 1 % Penicillin-Streptomycin and 1 ng/mL recombinant murine interleukin-3 (#213-13, PeproTech). All stably transformed BaF3 cells were cultured in RPMI 1640 without IL‐3. The TT MTC cell was grown in Ham's F-12K medium (#21127022, Gibco) supplemented with 10 % FBS and 1 % Penicillin-Streptomycin. Cells were cultured at 37 °C under 5 % CO2 and high humidity conditions.
(§2) KIF5B-RET, CCDC6-RET and mutations were cloned into pCDHL vector and were verified by sequencing. Reah RET expression vectors were separately co‐transfected with psPAX2 and pMD2.G packaging plasmids into 60-70% confluent HEK 293T cells maintained in 2 mL of culture medium in six‐well plates using Polyethyleneimine (PEI) transfection grade. Virus containing media was harvested after 48 h and filtered with 0.45 μm membrane and stored at -80 °C prior to infection. For infection of Ba/F3 cells, 1 mL of viral supernatant and 8 μg/mL polybrene were added to 5 million cells per well in six‐well plates. Infected cells were selected with the addition of 1 μg/mL puromycin for 2 weeks in RPMI-1640/ 10% FBS/ 1 ng/mL IL-3 medium. Subsquently, puromycin-resistant cells were cultured in IL-3-free medium for 1 week and RET fusion proteins were confirmed by immunoblot analysis.
(§3) Cell viability was assessed by luminescence using CellTiter-Glo 2.0 assay (Promega). IC50 curve fitting was performed using GraphPad Prism 9.0.

[3] = system: HEK293T-KIF5B-RET V804M cells; test: Proliferation assay (CellTiter-Glo); format: cell-based; details: Homo sapiens, read-out: Cellular Viability IC50
Description: as §1, §2, §3

[4] = system: HEK293T-KIF5B-RET WT cells; test: Proliferation assay (CellTiter-Glo); format: cell-based; details: Homo sapiens, read-out: Cellular Viability IC50
Description: as §1, §2, §3

[5] = Plasma protein binding, rapid equilibrium dialysis; format: in vitro ADME; details: dog, read-out: Plasma protein binding rate (converted)
CYP2C8 = biological target: T1, CYP2C8 (Homo sapiens, UniProt P10632); test: CYP inhibition in human liver microsomes; format: in vitro ADME; details: 0.5-25 μM
T1 construct: substrates of different CYP450 enzymes in mixed human liver microsomes; from tissue; host or cells: mixed human liver microsomes

[6] = system: patients with advanced RET-altered solid tumors; test: Phase 1 trial: treatment-related adverse events (CTCAE v5.0), DLT, MTD;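 further: Open-label single-arm first-in-human phase 1 study at six Chinese sites with 3 + 3 dose escalation and expansion, adverse events given descriptively as patient counts and percentages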
Description: This single-arm, open-label, first-in-human, dose-escalation and dose-expansion phase 1 study was conducted across six sites in China (NCT05278364). […] Dose escalation followed a 3 + 3 design, incorporating accelerated titration[41] for the first two dose levels and a modified Fibonacci dose escalation.[42]
The primary endpoints for this study were to determine the MTD, DLT, RP2D and safety. […] All responses required a confirmation of radiologic assessment at least 4 weeks after the first assessment.
The Pharmacokinetic Analysis Set (PKAS) included all patients with at least one evaluable PK sample (n = 43). Descriptive statistics were used for baseline data, summarizing continuous data with mean, standard deviation, median, minimum, and maximum, and categorical data with frequency and percentage. Safety analysis was descriptive, including adverse events summarized by frequency and severity. PK parameter analysis was performed using Phoenix WinNonlin version 8.0 (Certara L.P. [Pharsight], St. Louis, MO, USA), and results were summarized using geometric mean and coefficient of variation. CIs for response rates were calculated using the Clopper-Pearson method. […] All analysis were performed with SAS statistical software, version 9.2 (SAS Institute).

T1 sequence (P10632 whole entry): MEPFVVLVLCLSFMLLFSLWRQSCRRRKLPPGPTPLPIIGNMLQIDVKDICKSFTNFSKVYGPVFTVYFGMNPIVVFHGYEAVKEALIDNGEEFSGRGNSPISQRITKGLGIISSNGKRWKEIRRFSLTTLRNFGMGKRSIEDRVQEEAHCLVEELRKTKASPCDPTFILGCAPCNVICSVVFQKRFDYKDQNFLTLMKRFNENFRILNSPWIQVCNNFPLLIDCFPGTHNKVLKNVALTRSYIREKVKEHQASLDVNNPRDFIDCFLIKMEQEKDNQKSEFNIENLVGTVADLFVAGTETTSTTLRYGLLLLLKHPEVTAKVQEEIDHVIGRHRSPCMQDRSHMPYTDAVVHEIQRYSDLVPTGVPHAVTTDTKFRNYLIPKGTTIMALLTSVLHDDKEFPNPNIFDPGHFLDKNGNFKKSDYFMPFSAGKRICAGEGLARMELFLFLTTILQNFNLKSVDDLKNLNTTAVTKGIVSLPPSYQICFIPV

Which “Intracranial ORR” value ([1]; 2/3 patients with measurable CNS metastases) does the source give for `COc1ccc(CN2C3CC2CN(c2ccc(-c4cc(N5CC(C)(O)C5)cn5ncc(C#N)c45)cn2)C3)cn1` [SY-5007, 6-(3-hydroxy-3-methylazetidin-1-yl)-4-(6-(6-((6-methoxypyridin-3-yl)methyl)-3,6-diazabicyclo[3.1.1]heptan-3-yl)pyridin-3-yl)pyrazolo[1,5-a]pyridine-3-carbonitrile] here?
Its value is 66.7%.

What about the “Intracranial DCR” value ([1]; 3/3 patients) of the same molecule?
The value was 100.0%.

And the Intracranial lesion reduction ([1]; after 4 weeks)?
The Intracranial lesion reduction was 40.7%.

What about the Intracranial lesion reduction ([1]; after 12 weeks) of the same molecule?
The Intracranial lesion reduction was 56.5%.

What about the pIC50 [2] of the same molecule?
The pIC50 was 7.24.

And the pIC50 [3]?
Its pIC50 is 7.00.

And the pIC50 [4]?
Its pIC50 is 7.26.

And the fraction unbound [5]?
The fraction unbound was 0.042.

And the pIC50 (CYP2C8)?
The pIC50 was 5.01.

What about the “Dose-limiting toxicity (DLT)” value ([6]; 20 mg QD to 200 mg BID) of the same molecule?
The value was “No dose-limiting toxicity (DLT) was observed”.

And the Albuminuria ([6]; All Grade, Total (n = 122))?
The Albuminuria was 45 (36.9) n (%).

What about the Anemia ([6]; All Grade, Total (n = 122)) of the same molecule?
Its Anemia is 27 (22.1) n (%).

And the “Any TRAE” value ([6]; All Grade, Total (n = 122))?
Its value is 96.7 n (%) and 118 (96.7) n (%).

What about the “Conjugated Hyperbilirubinemia” value ([6]; All Grade, Total (n = 122)) of the same molecule?
The value was 23 (18.9) n (%).

What about the Diarrhea ([6]; All Grade, Total (n = 122)) of the same molecule?
The Diarrhea was 54.1 n (%) and 66 (54.1) n (%).

And the Dry mouth ([6]; All Grade, Total (n = 122))?
Its Dry mouth is 40 (32.8) n (%).

What about the Facial edema ([6]; All Grade, Total (n = 122)) of the same molecule?
Its Facial edema is 35 (28.7) n (%).

What about the Hyperbilirubinemia ([6]; All Grade, Total (n = 122)) of the same molecule?
Its Hyperbilirubinemia is 51 (41.8) n (%).

And the Hyperglycemia ([6]; All Grade, Total (n = 122))?
Its Hyperglycemia is 22 (18.0) n (%).

What about the Hyperphosphatemia ([6]; All Grade, Total (n = 122)) of the same molecule?
The Hyperphosphatemia was 42 (34.4) n (%).

What about the Hypertension ([6]; All Grade, Total (n = 122)) of the same molecule?
The Hypertension was 50 (41.0) n (%).

What about the Hypertriglyceridemia ([6]; All Grade, Total (n = 122)) of the same molecule?
Its Hypertriglyceridemia is 55 (45.1) n (%).

And the Hyperuricemia ([6]; All Grade, Total (n = 122))?
Its Hyperuricemia is 41 (33.6) n (%).

And the Hypoalbuminemia ([6]; All Grade, Total (n = 122))?
The Hypoalbuminemia was 33 (27.0) n (%).

What about the Hypocalcemia ([6]; All Grade, Total (n = 122)) of the same molecule?
The Hypocalcemia was 34 (27.9) n (%).

And the Hyponatremia ([6]; All Grade, Total (n = 122))?
The Hyponatremia was 23 (18.9) n (%).

And the Hypopotassemia ([6]; All Grade, Total (n = 122))?
The Hypopotassemia was 19 (15.6) n (%).

And the Hypothyroidism ([6]; All Grade, Total (n = 122))?
The Hypothyroidism was 38 (31.1) n (%).

And the Increased alanine aminotransferase ([6]; All Grade, Total (n = 122))?
Its Increased alanine aminotransferase is 56.6 n (%) and 69 (56.6) n (%).

And the Increased aspartate aminotransferase ([6]; All Grade, Total (n = 122))?
Its Increased aspartate aminotransferase is 69.7 n (%) and 85 (69.7) n (%).

What about the “Increased blood alkaline phosphatase” value ([6]; All Grade, Total (n = 122)) of the same molecule?
Its value is 43 (35.2) n (%).

And the Increased blood creatine ([6]; All Grade, Total (n = 122))?
The Increased blood creatine was 45 (36.9) n (%).

What about the “Increased blood creatine phosphokinase” value ([6]; All Grade, Total (n = 122)) of the same molecule?
The value was 40 (32.8) n (%).

And the “Increased blood creatine phosphokinase MB” value ([6]; All Grade, Total (n = 122))?
Its value is 54 (44.3) n (%).

And the “Increased blood lactate dehydrogenase” value ([6]; All Grade, Total (n = 122))?
The value was 51 (41.8) n (%).

What about the “Increased γ-Glutamyl transferase” value ([6]; All Grade, Total (n = 122)) of the same molecule?
Its value is 28 (23.0) n (%).

What about the Leukopenia ([6]; All Grade, Total (n = 122)) of the same molecule?
The Leukopenia was 56 (45.9) n (%).

And the Lymphopenia ([6]; All Grade, Total (n = 122))?
Its Lymphopenia is 30 (24.6) n (%).

And the Neutropenia ([6]; All Grade, Total (n = 122))?
Its Neutropenia is 54.1 n (%) and 66 (54.1) n (%).

What about the Palmoplantar erythema syndrome ([6]; All Grade, Total (n = 122)) of the same molecule?
Its Palmoplantar erythema syndrome is 23 (18.9) n (%).

What about the Peripheral edema ([6]; All Grade, Total (n = 122)) of the same molecule?
The Peripheral edema was 23 (18.9) n (%).

And the Thrombocytopenia ([6]; All Grade, Total (n = 122))?
Its Thrombocytopenia is 50 (41.0) n (%).

And the Weakness ([6]; All Grade, Total (n = 122))?
The Weakness was 20 (16.4) n (%).

And the Weight loss ([6]; All Grade, Total (n = 122))?
Its Weight loss is 22 (18.0) n (%).

And the Xeromycteria ([6]; All Grade, Total (n = 122))?
Its Xeromycteria is 21 (17.2) n (%).

And the “Conjugated Hyperbilirubinemia” value ([6]; Grade ⩾ 3, dose group)?
Its value is 0 (0.0) n (%).

And the Dry mouth ([6]; Grade ⩾ 3, dose group)?
Its Dry mouth is 0 (0.0) n (%).

What about the Facial edema ([6]; Grade ⩾ 3, dose group) of the same molecule?
Its Facial edema is 0 (0.0) n (%).

What about the Hyperglycemia ([6]; Grade ⩾ 3, dose group) of the same molecule?
Its Hyperglycemia is 0 (0.0) n (%).

What about the Hyperphosphatemia ([6]; Grade ⩾ 3, dose group) of the same molecule?
Its Hyperphosphatemia is 0 (0.0) n (%).

And the Hyperuricemia ([6]; Grade ⩾ 3, dose group)?
The Hyperuricemia was 0 (0.0) n (%).

What about the Hypoalbuminemia ([6]; Grade ⩾ 3, dose group) of the same molecule?
The Hypoalbuminemia was 0 (0.0) n (%).

What about the Hypothyroidism ([6]; Grade ⩾ 3, dose group) of the same molecule?
Its Hypothyroidism is 0 (0.0) n (%).

What about the “Increased blood alkaline phosphatase” value ([6]; Grade ⩾ 3, dose group) of the same molecule?
Its value is 0 (0.0) n (%).

What about the Increased blood creatine ([6]; Grade ⩾ 3, dose group) of the same molecule?
Its Increased blood creatine is 0 (0.0) n (%).

And the “Increased blood lactate dehydrogenase” value ([6]; Grade ⩾ 3, dose group)?
The value was 0 (0.0) n (%).

What about the Peripheral edema ([6]; Grade ⩾ 3, dose group) of the same molecule?
Its Peripheral edema is 0 (0.0) n (%).

And the Xeromycteria ([6]; Grade ⩾ 3, dose group)?
The Xeromycteria was 0 (0.0) n (%).

And the “Dose discontinuation due to TRAE” value ([6]; n = 122)?
The value was 2 (1.6%) n (%).

What about the “Dose interruption due to diarrhea” value ([6]; n = 122) of the same molecule?
Its value is 10.7%.

What about the “Dose interruption due to hypertension” value ([6]; n = 122) of the same molecule?
Its value is 12.3%.

And the “Dose reduction due to hypertension” value ([6]; n = 122)?
The value was 5.7%.

What about the TRAE-induced dose interruption ([6]; n = 122) of the same molecule?
Its TRAE-induced dose interruption is 56 (45.9%) n (%).

What about the TRAE-induced dose reduction ([6]; n = 122) of the same molecule?
Its TRAE-induced dose reduction is 29 (23.8%) n (%).

And the Treatment-related deaths ([6]; n = 122)?
The Treatment-related deaths was “no treatment-related deaths”.

And the “Treatment-related serious adverse events (TRSAEs)” value ([6]; n = 122)?
The value was 13 (10.7%) n (%).

And the “Maximum tolerated dose (MTD)” value ([6]; up to 200 mg BID)?
The value was “not reached”.
